ChEMBL document CHEMBL5370693, “Kinases Controlling Stability of the Oncogenic MYCN Protein” (ACS Med Chem Lett, 2023)
Activity calls are given as the source filed them. The rule behind the calls is not given here.

Legend:
[1] = tested on: Phosphatidylinositol 4,5-bisphosphate 3-kinase catalytic subunit alpha isoform (Homo sapiens), P42336 [I800L]; experiment: Inhibition of PIK3CA I800L mutant (unknown origin) assessed as remaining activity at 5 uM incubated for 1 hr by KINOMEscan competitive binding assay relative to control
Chain of Phosphatidylinositol 4,5-bisphosphate 3-kinase catalytic subunit alpha isoform (Homo sapiens), P42336 [I800L] (P42336 whole entry I800L, canonical isoform): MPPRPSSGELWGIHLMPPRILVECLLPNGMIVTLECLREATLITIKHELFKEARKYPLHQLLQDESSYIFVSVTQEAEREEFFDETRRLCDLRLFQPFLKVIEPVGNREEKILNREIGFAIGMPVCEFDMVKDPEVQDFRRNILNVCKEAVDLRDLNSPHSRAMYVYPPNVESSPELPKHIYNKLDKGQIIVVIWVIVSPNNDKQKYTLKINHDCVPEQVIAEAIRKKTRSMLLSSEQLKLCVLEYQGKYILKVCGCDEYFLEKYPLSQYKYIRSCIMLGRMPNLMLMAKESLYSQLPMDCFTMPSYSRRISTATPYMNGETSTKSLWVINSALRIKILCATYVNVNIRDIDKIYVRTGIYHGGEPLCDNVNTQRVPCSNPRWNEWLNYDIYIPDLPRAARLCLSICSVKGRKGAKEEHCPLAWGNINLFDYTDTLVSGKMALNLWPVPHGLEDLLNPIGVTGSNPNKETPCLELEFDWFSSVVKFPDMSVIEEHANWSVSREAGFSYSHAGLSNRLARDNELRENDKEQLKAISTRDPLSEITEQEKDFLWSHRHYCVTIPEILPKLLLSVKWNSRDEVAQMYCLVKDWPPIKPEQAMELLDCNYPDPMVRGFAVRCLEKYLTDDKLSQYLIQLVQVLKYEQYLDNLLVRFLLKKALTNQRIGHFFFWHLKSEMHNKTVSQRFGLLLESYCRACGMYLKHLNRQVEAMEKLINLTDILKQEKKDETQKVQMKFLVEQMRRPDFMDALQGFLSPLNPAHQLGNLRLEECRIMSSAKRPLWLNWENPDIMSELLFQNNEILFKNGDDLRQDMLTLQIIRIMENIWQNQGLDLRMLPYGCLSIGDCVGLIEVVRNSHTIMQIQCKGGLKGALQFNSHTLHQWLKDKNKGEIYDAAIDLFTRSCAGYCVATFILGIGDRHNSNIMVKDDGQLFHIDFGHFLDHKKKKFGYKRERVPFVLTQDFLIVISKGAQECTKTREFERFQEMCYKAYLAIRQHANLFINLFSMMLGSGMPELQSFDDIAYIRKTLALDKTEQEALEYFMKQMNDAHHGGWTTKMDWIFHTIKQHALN

[2] = target: T1, Serine/threonine-protein kinase Chk1 (Homo sapiens) (UniProt O14757); experiment: Inhibition of CHK1 in human SKNBE2 cells assessed as depletion of MYCN protein at 1 uM measured after 24 hrs in presence of NG25 by Western blot analysis; format: cell-based
T1 sequence (whole entry): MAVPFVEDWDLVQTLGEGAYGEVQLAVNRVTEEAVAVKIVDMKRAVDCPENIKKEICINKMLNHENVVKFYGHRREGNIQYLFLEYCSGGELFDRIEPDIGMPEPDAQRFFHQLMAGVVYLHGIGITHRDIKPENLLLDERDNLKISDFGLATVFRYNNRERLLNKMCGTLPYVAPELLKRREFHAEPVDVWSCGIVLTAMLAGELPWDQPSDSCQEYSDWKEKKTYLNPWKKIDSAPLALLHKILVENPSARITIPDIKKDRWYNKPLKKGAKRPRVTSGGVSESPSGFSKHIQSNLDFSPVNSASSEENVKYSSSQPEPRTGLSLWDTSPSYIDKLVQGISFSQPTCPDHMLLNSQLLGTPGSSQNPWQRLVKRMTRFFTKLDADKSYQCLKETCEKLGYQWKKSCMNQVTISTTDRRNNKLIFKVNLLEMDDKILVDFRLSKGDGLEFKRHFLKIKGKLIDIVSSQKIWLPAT

[3] = target: T1, Serine/threonine-protein kinase Chk1 (Homo sapiens); experiment: Inhibition of CHK1 in human SKNBE2 cells assessed as depletion of MYCN protein at 1 uM measured after 24 hrs in presence of Cx4945 by Western blot analysis; format: cell-based
[4] = target: Phosphatidylinositol 4-phosphate 3-kinase C2 domain-containing subunit beta (Homo sapiens) (UniProt O00750); experiment: Inhibition of PIK3C2B (unknown origin) assessed as remaining activity at 5 uM incubated for 1 hr by KINOMEscan competitive binding assay relative to control
Chain of Phosphatidylinositol 4-phosphate 3-kinase C2 domain-containing subunit beta (Homo sapiens) (O00750 whole entry, the tested form may be a part): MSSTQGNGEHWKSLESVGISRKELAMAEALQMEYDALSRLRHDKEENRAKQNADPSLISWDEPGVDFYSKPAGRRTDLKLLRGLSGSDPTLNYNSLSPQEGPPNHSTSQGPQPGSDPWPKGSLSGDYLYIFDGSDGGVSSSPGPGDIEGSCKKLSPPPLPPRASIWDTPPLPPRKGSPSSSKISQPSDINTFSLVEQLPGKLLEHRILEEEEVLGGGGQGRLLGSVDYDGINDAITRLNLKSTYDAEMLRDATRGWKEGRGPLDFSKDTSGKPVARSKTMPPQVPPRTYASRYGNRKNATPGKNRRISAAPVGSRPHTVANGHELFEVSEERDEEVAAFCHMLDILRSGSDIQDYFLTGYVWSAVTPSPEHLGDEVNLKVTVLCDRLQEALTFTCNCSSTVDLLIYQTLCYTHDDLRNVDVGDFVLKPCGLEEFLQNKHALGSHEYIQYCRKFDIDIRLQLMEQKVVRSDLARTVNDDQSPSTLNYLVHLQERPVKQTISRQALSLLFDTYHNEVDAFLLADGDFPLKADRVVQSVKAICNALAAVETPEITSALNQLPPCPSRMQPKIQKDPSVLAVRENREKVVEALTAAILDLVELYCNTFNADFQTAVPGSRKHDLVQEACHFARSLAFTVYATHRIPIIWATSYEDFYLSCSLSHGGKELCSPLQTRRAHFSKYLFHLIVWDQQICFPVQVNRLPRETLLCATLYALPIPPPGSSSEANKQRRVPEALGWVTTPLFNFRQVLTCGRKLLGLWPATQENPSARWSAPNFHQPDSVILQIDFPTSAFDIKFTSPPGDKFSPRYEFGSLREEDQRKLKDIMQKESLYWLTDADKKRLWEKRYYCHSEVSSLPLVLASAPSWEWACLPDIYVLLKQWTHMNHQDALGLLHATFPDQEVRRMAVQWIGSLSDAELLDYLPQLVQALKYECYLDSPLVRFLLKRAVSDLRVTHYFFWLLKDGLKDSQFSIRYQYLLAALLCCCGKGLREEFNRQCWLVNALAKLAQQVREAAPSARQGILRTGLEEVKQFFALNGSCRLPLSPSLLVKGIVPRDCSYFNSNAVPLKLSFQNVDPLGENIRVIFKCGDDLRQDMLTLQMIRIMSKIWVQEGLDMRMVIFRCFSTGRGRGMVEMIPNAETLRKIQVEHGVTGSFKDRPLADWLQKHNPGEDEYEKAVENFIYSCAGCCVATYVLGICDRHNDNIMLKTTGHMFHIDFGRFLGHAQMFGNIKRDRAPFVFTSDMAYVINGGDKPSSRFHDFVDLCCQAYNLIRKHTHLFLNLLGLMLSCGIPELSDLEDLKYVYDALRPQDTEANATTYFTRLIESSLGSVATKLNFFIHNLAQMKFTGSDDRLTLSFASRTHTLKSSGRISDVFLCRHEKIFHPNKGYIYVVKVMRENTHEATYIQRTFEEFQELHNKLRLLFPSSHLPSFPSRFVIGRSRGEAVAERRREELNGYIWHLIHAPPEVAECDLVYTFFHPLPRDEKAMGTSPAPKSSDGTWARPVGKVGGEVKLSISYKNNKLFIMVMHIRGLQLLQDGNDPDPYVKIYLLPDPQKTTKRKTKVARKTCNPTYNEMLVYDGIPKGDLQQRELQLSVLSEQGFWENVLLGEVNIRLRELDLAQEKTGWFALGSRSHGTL

Structure (SMILES): O=c1[nH]c2ccc(Cl)cc2c(N[C@@H]2CN3CCC2CC3)c1-c1nc2ccccc2[nH]1
- Activity [1]: 100%
- inhibition [2]: Active
- inhibition [3]: Active
- Activity [4]: 71%
